This is an account of results in patent US20240024488A1, “COMPOUNDS AND USES THEREOF” (Foghorn Therapeutics Inc., priority 2020, published 2024).

The target of assay [1] is T1, HiBit-BRM fusion protein (Homo sapiens, UniProt P51531).
T1 construct: expressed in transfected cells
The assay can be described thus: HiBiT-BRM cell-based degradation assay (Nano-Glo HiBiT Lytic Detection, 24 h). The conditions noted are these: HeLa cell line expressing HiBiT-BRM; for DC50: read-out: BRM HiBit Degradation IC50. The gist of the method:
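HeLa cells stably expressing HiBiT-BRM were treated for 24 h with compounds (10-point 3-fold dilutions, 30 μM final top dose, in duplicate). HiBiT was detected by lytic LgBiT complementation luminescence. % degradation was normalized to DMSO (high control) and 2 μM of a reference BRM/BRG1 degrader (low control).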

The target of assay [2] is T2, HiBit-BRG1 fusion protein (Homo sapiens, UniProt P51532).
T2 construct: expressed in transfected cells
T2 sequence (P51532 whole entry, the tested form may be a part): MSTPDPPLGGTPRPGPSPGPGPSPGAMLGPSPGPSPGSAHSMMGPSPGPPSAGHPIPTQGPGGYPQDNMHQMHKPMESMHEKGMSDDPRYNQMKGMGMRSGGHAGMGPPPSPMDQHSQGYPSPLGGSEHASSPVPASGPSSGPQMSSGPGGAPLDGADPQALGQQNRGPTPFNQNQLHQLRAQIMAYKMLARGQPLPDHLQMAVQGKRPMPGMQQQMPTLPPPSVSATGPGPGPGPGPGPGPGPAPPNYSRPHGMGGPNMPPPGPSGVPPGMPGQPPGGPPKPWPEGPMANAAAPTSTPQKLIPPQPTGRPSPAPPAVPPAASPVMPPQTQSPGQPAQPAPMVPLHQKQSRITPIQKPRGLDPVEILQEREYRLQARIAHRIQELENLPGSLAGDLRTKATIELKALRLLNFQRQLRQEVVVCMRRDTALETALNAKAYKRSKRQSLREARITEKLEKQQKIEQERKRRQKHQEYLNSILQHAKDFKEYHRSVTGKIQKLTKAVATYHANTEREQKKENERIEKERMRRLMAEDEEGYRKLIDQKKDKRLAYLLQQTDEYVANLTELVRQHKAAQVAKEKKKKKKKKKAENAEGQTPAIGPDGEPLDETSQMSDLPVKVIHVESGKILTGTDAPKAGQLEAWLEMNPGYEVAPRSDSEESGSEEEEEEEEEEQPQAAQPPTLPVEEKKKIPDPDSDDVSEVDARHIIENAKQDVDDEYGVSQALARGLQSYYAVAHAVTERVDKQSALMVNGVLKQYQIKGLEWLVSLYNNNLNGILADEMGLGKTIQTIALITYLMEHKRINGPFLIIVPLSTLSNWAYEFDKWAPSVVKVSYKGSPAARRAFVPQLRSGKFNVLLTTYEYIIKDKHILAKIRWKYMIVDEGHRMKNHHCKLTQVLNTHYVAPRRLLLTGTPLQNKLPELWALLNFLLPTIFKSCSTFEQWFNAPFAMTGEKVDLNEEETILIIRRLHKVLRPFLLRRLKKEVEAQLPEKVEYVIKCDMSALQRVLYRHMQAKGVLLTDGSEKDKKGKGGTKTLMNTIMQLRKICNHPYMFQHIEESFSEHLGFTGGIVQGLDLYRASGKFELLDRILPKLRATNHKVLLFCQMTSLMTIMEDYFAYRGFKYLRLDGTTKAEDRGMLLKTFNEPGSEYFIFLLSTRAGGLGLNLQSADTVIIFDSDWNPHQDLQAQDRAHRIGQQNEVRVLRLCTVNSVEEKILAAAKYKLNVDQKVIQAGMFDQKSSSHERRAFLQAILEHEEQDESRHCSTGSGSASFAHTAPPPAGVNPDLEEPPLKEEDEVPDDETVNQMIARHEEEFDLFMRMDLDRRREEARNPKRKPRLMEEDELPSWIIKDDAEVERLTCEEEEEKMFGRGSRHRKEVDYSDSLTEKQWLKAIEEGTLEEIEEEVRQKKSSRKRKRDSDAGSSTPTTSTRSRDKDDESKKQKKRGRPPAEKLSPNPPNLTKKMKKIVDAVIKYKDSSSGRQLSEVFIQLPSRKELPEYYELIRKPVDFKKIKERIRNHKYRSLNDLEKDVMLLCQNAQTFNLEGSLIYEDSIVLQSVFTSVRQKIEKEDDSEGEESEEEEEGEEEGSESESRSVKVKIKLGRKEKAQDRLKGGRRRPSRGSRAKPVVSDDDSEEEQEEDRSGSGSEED
The assay can be described thus: HiBiT-BRG1 cell-based degradation assay (Nano-Glo HiBiT Lytic Detection, 24 h). The conditions noted are these: HeLa cell line expressing HiBit-BRG1 and LgBit; for Dmax: read-out: BRG1 HiBit Degradation Maximum (%); for DC50: read-out: BRMG1 HiBit Degradation IC50. The gist of the method:
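HeLa cells stably expressing HiBit-BRG1 plus LgBit; compound exposure 24 h; Nano-Glo HiBiT lytic luminescence; % degradation vs DMSO (0%) and 2 μM standard BRM/BRG1 degrader (100%).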
(In general: The HiBiT peptide binds its large partner to form an active luciferase.)

T1 sequence (P51531 whole entry, the tested form may be a part): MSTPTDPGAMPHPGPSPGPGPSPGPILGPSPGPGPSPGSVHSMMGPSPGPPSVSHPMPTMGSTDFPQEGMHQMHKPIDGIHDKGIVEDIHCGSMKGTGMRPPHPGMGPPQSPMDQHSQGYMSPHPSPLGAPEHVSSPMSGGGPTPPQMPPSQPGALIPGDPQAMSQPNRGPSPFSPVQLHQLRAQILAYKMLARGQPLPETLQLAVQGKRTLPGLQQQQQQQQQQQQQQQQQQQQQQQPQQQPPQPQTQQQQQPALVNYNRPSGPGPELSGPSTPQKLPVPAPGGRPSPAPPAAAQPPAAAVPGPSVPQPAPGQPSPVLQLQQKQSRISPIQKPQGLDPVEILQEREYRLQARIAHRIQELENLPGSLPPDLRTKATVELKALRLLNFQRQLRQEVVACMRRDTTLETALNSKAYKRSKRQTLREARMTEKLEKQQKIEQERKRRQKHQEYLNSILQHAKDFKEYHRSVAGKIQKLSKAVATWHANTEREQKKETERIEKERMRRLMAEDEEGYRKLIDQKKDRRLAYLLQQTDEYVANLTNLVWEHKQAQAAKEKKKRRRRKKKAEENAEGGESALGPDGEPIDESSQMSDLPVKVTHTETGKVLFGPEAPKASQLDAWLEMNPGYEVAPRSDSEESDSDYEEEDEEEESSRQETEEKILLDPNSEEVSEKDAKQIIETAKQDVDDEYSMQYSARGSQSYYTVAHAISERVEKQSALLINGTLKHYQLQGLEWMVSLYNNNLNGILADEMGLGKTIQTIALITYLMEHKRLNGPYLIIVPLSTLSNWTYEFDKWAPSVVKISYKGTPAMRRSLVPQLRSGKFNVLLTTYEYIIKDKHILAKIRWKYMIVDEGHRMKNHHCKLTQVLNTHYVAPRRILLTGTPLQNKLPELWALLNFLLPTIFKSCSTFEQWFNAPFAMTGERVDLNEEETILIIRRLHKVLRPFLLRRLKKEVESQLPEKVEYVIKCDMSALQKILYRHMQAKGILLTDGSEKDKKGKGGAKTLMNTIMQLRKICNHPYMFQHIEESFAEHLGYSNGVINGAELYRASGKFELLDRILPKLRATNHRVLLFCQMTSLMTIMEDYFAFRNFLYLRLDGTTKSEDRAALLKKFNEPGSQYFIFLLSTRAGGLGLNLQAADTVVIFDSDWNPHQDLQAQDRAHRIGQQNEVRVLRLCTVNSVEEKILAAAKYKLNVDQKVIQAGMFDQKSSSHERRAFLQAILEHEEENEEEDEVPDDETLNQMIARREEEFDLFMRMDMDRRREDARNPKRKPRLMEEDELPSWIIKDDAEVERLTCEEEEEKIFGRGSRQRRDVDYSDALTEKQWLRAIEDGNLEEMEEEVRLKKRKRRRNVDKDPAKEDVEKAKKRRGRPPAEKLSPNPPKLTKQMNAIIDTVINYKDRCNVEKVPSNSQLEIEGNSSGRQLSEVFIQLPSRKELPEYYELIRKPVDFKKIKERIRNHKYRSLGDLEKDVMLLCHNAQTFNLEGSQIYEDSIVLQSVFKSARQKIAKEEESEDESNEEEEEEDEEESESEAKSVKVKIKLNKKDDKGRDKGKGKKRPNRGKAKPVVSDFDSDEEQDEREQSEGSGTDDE

For the compound `Cc1ncsc1-c1ccc(CNC(=O)[C@@H]2C[C@@H](O)CN2C(=O)[C@@H](NC(=O)C2(F)CC2)C(C)(C)C)c(OCCN2CC(c3cc4cc(-c5ccccc5O)nnc4[nH]3)C2)c1` (racemic) [Compound 63, (2S,4R)-1-((S)-2-(1-fluorocyclopropane-1-carboxamido)-3,3-dimethylbutanoyl)-4-hydroxy-N-(2-(2-(3-(3-(2-hydroxyphenyl)-7H-pyrrolo[2,3-c]pyridazin-6-yl)azetidin-1-yl)ethoxy)-4-(4-methylthiazol-5-yl)benzyl)pyrrolidine-2-carboxamide], the “BRM HiBit Degradation Maximum (%)” value in assay [1] is reported as “C (“C” indicates maximum degradation < 50%)”. Moreover, the Dmax in assay [2] is < 50%.
For `Cc1ncsc1-c1ccc([C@H](C)NC(=O)[C@@H]2C[C@@H](O)CN2C(=O)[C@@H](c2cc(OCCN3CCC[C@@H]3c3cc4cc(-c5ccccc5O)nnc4[nH]3)no2)C(C)C)cc1` (racemic) [Compound 261, (2S,4R)-4-hydroxy-1-((R)-2-(3-(2-((R)-2-(3-(2-hydroxyphenyl)-7H-pyrrolo[2,3-c]pyridazin-6-yl)pyrrolidin-1-yl)ethoxy)isoxazol-5-yl)-3-methylbutanoyl)-N-((S)-1-(4-(4-methylthiazol-5-yl)phenyl)ethyl)pyrrolidine-2-carboxamide] the same measures were “C (“C” indicates maximum degradation < 50%)” and < 50%.
As for `Cc1ncsc1-c1ccc([C@H](C)NC(=O)[C@@H]2C[C@@H](O)CN2C(=O)[C@H](c2cc(N3C[C@@H]4C[C@H]3CN4C(=O)[C@@H]3CCc4[nH]c5nnc(-c6ccccc6O)cc5c4C3)no2)C(C)C)cc1` (single isomer, unassigned) [Compound 100], the “BRM HiBit Degradation Maximum (%)” value in assay [1] is “C (“C” indicates maximum degradation < 50%)”. Moreover, the Dmax in assay [2] was < 50%.
As for `Cc1ncsc1-c1ccc([C@H](C)NC(=O)[C@@H]2C[C@@H](O)CN2C(=O)[C@@H](c2cc(OCCN3CCC[C@@H](c4cc5cc(-c6ccccc6O)nnc5[nH]4)C3)no2)C(C)C)cc1` (racemic) [Compound 279, (2S,4R)-4-hydroxy-1-((R)-2-(3-(2-((R)-3-(3-(2-hydroxyphenyl)-7H-pyrrolo[2,3-c]pyridazin-6-yl)piperidin-1-yl)ethoxy)isoxazol-5-yl)-3-methylbutanoyl)-N-((S)-1-(4-(4-methylthiazol-5-yl)phenyl)ethyl)pyrrolidine-2-carboxamide], in assay [1], the “BRM HiBit Degradation Maximum (%)” value is reported as “A (“A” indicates maximum degradation ≥ 75%)” and the DC50 was > 10 nM. The Dmax in assay [2] was < 50%.
On to `Cc1ncsc1-c1ccc(CNC(=O)[C@@H]2C[C@@H](O)CN2C(=O)[C@@H](NC(=O)CCCCC(=O)N2CC(c3cc4cc(-c5ccccc5O)nnc4[nH]3)C2)C(C)(C)C)cc1` [Compound 18, (2S,4R)-4-hydroxy-1-((S)-2-(6-(3-(3-(2-hydroxyphenyl)-7H-pyrrolo[2,3-c]pyridazin-6-yl)azetidin-1-yl)-6-oxohexanamido)-3,3-dimethylbutanoyl)-N-(4-(4-methylthiazol-5-yl)benzyl)pyrrolidine-2-carboxamide], for which the “BRM HiBit Degradation Maximum (%)” value in assay [1] is “C (“C” indicates maximum degradation < 50%)”. In addition, the Dmax in assay [2] is < 50%.
With `Cc1ncsc1-c1ccc(CNC(=O)[C@@H]2C[C@@H](O)CN2C(=O)[C@@H](NC(=O)CCC(=O)N[C@H]2CCc3[nH]c4nnc(-c5ccccc5O)cc4c3C2)C(C)(C)C)cc1` (relative stereo) [Compound 174, N1-((S)-1-((2S,4R)-4-hydroxy-2-((4-(4-methylthiazol-5-yl)benzyl)carbamoyl)pyrrolidin-1-yl)-3,3-dimethyl-1-oxobutan-2-yl)-N4-((S)-3-(2-hydroxyphenyl)-6,7,8,9-tetrahydro-5H-pyridazino[3,4-b]indol-6-yl)succinamide], in assay [1], the “BRM HiBit Degradation Maximum (%)” value is recorded as “B (“B” indicates maximum degradation ≥ 50%)” and the DC50 is > 1000 nM. Also, the Dmax in assay [2] was < 50%.
Consider `Cc1ncsc1-c1ccc([C@H](C)NC(=O)[C@@H]2C[C@@H](O)CN2C(=O)[C@@H](c2cc(OCCN3CC[C@H](c4c(C)[nH]c5nnc(-c6ccccc6O)cc45)C3)no2)C(C)C)cc1` (single isomer, unassigned) [Compound 241], for which, in assay [1], the “BRM HiBit Degradation Maximum (%)” value is given as “B (“B” indicates maximum degradation ≥ 50%)” and the DC50 was > 10 nM. Moreover, the Dmax in assay [2] is < 50%.
As for `Cc1ncsc1-c1ccc(CNC(=O)[C@@H]2C[C@@H](O)CN2C(=O)[C@H](c2cc(OCCN3CC(c4cc5cc(-c6ccccc6O)nnc5[nH]4)C3)no2)C(C)C)cc1` (single isomer, unassigned) [Compound 207], the “BRM HiBit Degradation Maximum (%)” value in assay [1] is recorded as “C (“C” indicates maximum degradation < 50%)”. Further, in assay [2], the Dmax is < 50%.
For `Cc1ncsc1-c1ccc([C@H](C)NC(=O)[C@@H]2C[C@@H](O)CN2C(=O)[C@@H](c2cc(N3CCC(c4cnc(N5CCC(c6c[nH]c7nnc(-c8ccccc8O)cc67)CC5)nc4)CC3)no2)C(C)C)cc1` (single isomer, unassigned) [Compound 92], in assay [1], the “BRM HiBit Degradation Maximum (%)” value was “A (“A” indicates maximum degradation ≥ 75%)” and the DC50 was > 10 nM. In assay [2], the Dmax is > 75% and the DC50 was > 10 nM.
On to `Cc1ncsc1-c1ccc(CNC(=O)[C@@H]2C[C@@H](O)CN2C(=O)[C@@H](NC(=O)CCN(C)C23CC(c4cc5cc(-c6ccccc6O)nnc5[nH]4)(C2)C3)C(C)(C)C)cc1` (racemic) [Compound 293, (2S,4R)-4-hydroxy-1-[(2S)-2-[3-([3-[3-(2-hydroxyphenyl)-7H-pyrrolo[2,3-c]pyridazin-6-yl]bicyclo[1.1.1]pentan-1-yl](methyl)amino)propanamido]-3,3-dimethylbutanoyl]-N-[[4-(4-methyl-1,3-thiazol-5-yl)phenyl]methyl]pyrrolidine-2-carboxamide], for which, in assay [1], the “BRM HiBit Degradation Maximum (%)” value was “A (“A” indicates maximum degradation ≥ 75%)” and the DC50 was > 100 nM. Further, in assay [2], the Dmax was > 50% and the DC50 was > 1000 nM.
For `Cc1ncsc1-c1ccc([C@H](C)NC(=O)[C@@H]2C[C@@H](O)CN2C(=O)[C@@H](c2cc(N3CCN(CC45CC(c6cc7cc(-c8ccccc8O)nnc7[nH]6)(C4)C5)CC3)no2)C(C)C)cc1` (single isomer, unassigned) [Compound 233] the same measures were “A (“A” indicates maximum degradation ≥ 75%)”, > 10 nM, > 75% and > 10 nM.
Turning to `Cc1ncsc1-c1ccc([C@H](C)NC(=O)[C@@H]2C[C@@H](O)CN2C(=O)[C@@H](c2cc(OCCN3Cc4[nH]c5nnc(-c6ccccc6O)cc5c4C3)no2)C(C)C)cc1` [Compound 123, (2S,4R)-4-hydroxy-1-[(2R)-2-(3-{2-[11-(2-hydroxyphenyl)-4,7,9,10-tetraazatricyclo[6.4.0.0^{2,6}]dodeca-1(12),2(6),8,10-tetraen-4-yl]ethoxy}-1,2-oxazol-5-yl)-3-methylbutanoyl]-N-[(1S)-1-[4-(4-methyl-1,3-thiazol-5-yl)phenyl]ethyl]pyrrolidine-2-carboxamide], in assay [1], the “BRM HiBit Degradation Maximum (%)” value is “A (“A” indicates maximum degradation ≥ 75%)” and the DC50 was > 100 nM. Besides, in assay [2], the Dmax was < 50%.
Regarding `Cc1ncsc1-c1ccc(CNC(=O)[C@@H]2C[C@@H](O)CN2C(=O)[C@@H](NC(=O)CCCCCCCCCC(=O)N2CC(c3c[nH]c4nnc(-c5ccccc5O)cc34)C2)C(C)(C)C)cc1` [Compound 37, (2S,4R)-4-hydroxy-1-((S)-2-(11-(3-(3-(2-hydroxyphenyl)-7H-pyrrolo[2,3-c]pyridazin-5-yl)azetidin-1-yl)-11-oxoundecanamido)-3,3-dimethylbutanoyl)-N-(4-(4-methylthiazol-5-yl)benzyl)pyrrolidine-2-carboxamide], the “BRM HiBit Degradation Maximum (%)” value in assay [1] is given as “C (“C” indicates maximum degradation < 50%)”. Moreover, in assay [2], the Dmax was < 50%.
On to `Cc1ncsc1-c1ccc([C@H](C)NC(=O)[C@@H]2C[C@@H](O)CN2C(=O)[C@@H](c2cc(OCCN3CCC34CC(c3cc5cc(-c6ccccc6O)nnc5[nH]3)C4)no2)C(C)C)cc1` (mixture of isomers) [Compound 161, (2S,4R)-4-hydroxy-1-((R)-2-(3-(2-(6-(3-(2-hydroxyphenyl)-7H-pyrrolo[2,3-c]pyridazin-6-yl)-1-azaspiro[3.3]heptan-1-yl)ethoxy)isoxazol-5-yl)-3-methylbutanoyl)-N-((S)-1-(4-(4-methylthiazol-5-yl)phenyl)ethyl)pyrrolidine-2-carboxamide], for which, in assay [1], the “BRM HiBit Degradation Maximum (%)” value is recorded as “A (“A” indicates maximum degradation ≥ 75%)” and the DC50 is > 10 nM. Moreover, in assay [2], the Dmax is > 75% and the DC50 is > 100 nM.
In the case of `Cc1ncsc1-c1ccc([C@H](C)NC(=O)[C@@H]2C[C@@H](O)CN2C(=O)[C@@H](c2cc(OCCN3CCN(Cc4cc5cc(-c6ccccc6O)nnc5[nH]4)CC3)no2)C(C)C)cc1` (racemic) [Compound 208, (2S,4R)-4-hydroxy-1-((R)-2-(3-(2-(4-((3-(2-hydroxyphenyl)-7H-pyrrolo[2,3-c]pyridazin-6-yl)methyl)piperazin-1-yl)ethoxy)isoxazol-5-yl)-3-methylbutanoyl)-N-((S)-1-(4-(4-methylthiazol-5-yl)phenyl)ethyl)pyrrolidine-2-carboxamide], in assay [1], the “BRM HiBit Degradation Maximum (%)” value is reported as “A (“A” indicates maximum degradation ≥ 75%)” and the DC50 was > 10 nM. Besides, the Dmax in assay [2] was < 50%.
